Test results from patent EP0657160A1, “Oral composition for desensitising sensitive teeth” (UNILEVER N.V., priority 1993, dated 1995).
Where a name gives a salt, the structure may show the parent alone. Read-outs that look alike come from different tables or passages of the source.

Test system: spinal nerve roots of the cauda equina
Test: Compound nerve action potentials (CAPs) recorded in vitro from isolated spinal nerve roots
Design: species or system rats
Settings: for IC50: K+ concentration read from the dose-response curves, read-out: 50% reduction of the CAP
Method: Using the method as described in J. Physiol 275, (1978), pages 177-189, experiments were carried out in vitro on spinal nerve roots of the cauda equina dissected from killed rats. Compound nerve action potentials (CAPs) were recorded from the nerves which were placed in a bath incorporating stimulating and recording electrodes and analyzed with MacLab Scope. Kreb's solutions containing various potassium ion concentrations were applied for 5 minutes to an isolated central portion of the nerve between the two sets of electrodes. With all potassium salts tested, the amplitude and area of the CAPs were reduced in a dose-dependent manner by test solutions containing 8 mM K⁺ or more. "Mean INT" in the table is the mean integrated CAP, expressed as a percentage of the control response, i.e. the response obtained with Krebs' solution containing 4mM K⁺. There were no differences in the results for CAP peak amplitudes and integrated CAPs.
Wilcoxons' Sum of Ranks test was used to compare the % of control I-CAP values obtained after 5 min exposure to the different K⁺ salts at equivalent concentrations.

[1] = [K+] 8 mM, applied for 5 minutes, mean integrated CAP as percentage of control response (Krebs' solution containing 4mM K+)
[2] = [K+] 16 mM, applied for 5 minutes, mean integrated CAP as percentage of control response (Krebs' solution containing 4mM K+)
[3] = [K+] 24 mM, applied for 5 minutes, mean integrated CAP as percentage of control response (Krebs' solution containing 4mM K+)
[4] = [K+] 32 mM, applied for 5 minutes, mean integrated CAP as percentage of control response (Krebs' solution containing 4mM K+)
[5] = [K+] 64 mM, applied for 5 minutes, mean integrated CAP as percentage of control response (Krebs' solution containing 4mM K+)

Compound	effect on CAP compared with potassium oxalate (16-64 mM K+, p < 0.05)	activity at 8000 µM (Rattus norvegicus, 5 min, [K+] 8 mM, applied for 5 minutes, mean integrated CAP as percentage of control response (Krebs' solution containing 4mM K+), read-out: mean INT.(%)) [%]	activity at 16000 µM (Rattus norvegicus, 5 min, [K+] 16 mM, applied for 5 minutes, mean integrated CAP as percentage of control response (Krebs' solution containing 4mM K+), read-out: mean INT.(%)) [%]	activity at 24000 µM (Rattus norvegicus, 5 min, [K+] 24 mM, applied for 5 minutes, mean integrated CAP as percentage of control response (Krebs' solution containing 4mM K+), read-out: mean INT.(%)) [%]	activity at 32000 µM (Rattus norvegicus, 5 min, [K+] 32 mM, applied for 5 minutes, mean integrated CAP as percentage of control response (Krebs' solution containing 4mM K+), read-out: mean INT.(%)) [%]	activity at 64000 µM (Rattus norvegicus, 5 min, [K+] 64 mM, applied for 5 minutes, mean integrated CAP as percentage of control response (Krebs' solution containing 4mM K+), read-out: mean INT.(%)) [%]	IC50 (Rattus norvegicus) [mM]	IC50 [mM]	mean INT.(%) [1] [%]	mean INT.(%) [2] [%]	mean INT.(%) [3] [%]	mean INT.(%) [4] [%]	mean INT.(%) [5] [%]
O=C(O)C(O)C(O)C(=O)O (stereo not shown) [K₂Tartrate, dipotassium tartrate]	significantly greater	83	15	2	1	1	11.6	–	–	–	–	–	–
potassium oxalate [K₂Oxalate]	–	–	–	–	–	–	–	14.3	84	42	11	3	1
O=[N+]([O-])[O-].[K+] [KNO₃, potassium nitrate]	–	–	–	–	–	–	–	17.4	91	54	17	2	0
[Cl-].[K+] [KCl, potassium chloride]	–	–	–	–	–	–	–	17.8	98	59	13	1	0
